Two compounds from patent EP0000816A1, “Substituted amino-pyridine derivatives, processes for their preparation and pharmaceutical compositions containing them” (BEECHAM GROUP PLC, priority 1977, dated 1979) can be followed below.

For the experiment, the system named is male albino rats (C.F.Y. strain). Description: Hypolipidaemic assay: serum total cholesterol and triglyceride in rats given compound in diet. It is filed as in vivo. As to conditions: 0.1% in diet for seven days; for % Cholesterol Lowering: serum total cholesterol compared with controls; for % Triglyceride Lowering: serum triglyceride compared with controls. The procedure: Groups of 8 male albino rats (C.F.Y. strain), weighing approximately 150 g., were given a powdered commercially available diet (oxoid) to which compounds were added at level of 0.1%. These diets were fed for seven days. The rats were then killed and their serum total cholesterol and triglyceride were measured by the Technicon Autoanalyser.

Regarding `O=C(O)c1ccc(NCc2ccccc2)nc1`, the “% Cholesterol Lowering” value is listed as 34% and the “% Triglyceride Lowering” value turned out to be 30%.

Consider `O=C(O)c1ccc(NCCCc2ccccc2)nc1`, for which the “% Cholesterol Lowering” value is listed as 16% and the “% Triglyceride Lowering” value worked out at 38%.
